Source: patent US20020049250A1, “PPAR receptor activator compounds for treating cutaneous disorders/afflictions” (priority 1999, published 2002)

Experiments:
Type in all cases: cell-based
[1] = biological target: T1, PPAR-α (Homo sapiens, UniProt Q07869); assay: PPAR-type receptor transactivation test (luciferase reporter), PPAR-α; conditions: for % activation α / AC50: cotransfected HeLa cells treated 24 hours; for % activation α: luciferase activity, relative to reference molecule Reference 1; for Emax: HeLa, 24 h, read-out: % activation α; for AC50: luciferase, concentration giving 50% of the activity of reference molecule
T1 construct: expressed in transfected cells; host or cells: HeLa cells
T1 sequence (Q07869 1-468): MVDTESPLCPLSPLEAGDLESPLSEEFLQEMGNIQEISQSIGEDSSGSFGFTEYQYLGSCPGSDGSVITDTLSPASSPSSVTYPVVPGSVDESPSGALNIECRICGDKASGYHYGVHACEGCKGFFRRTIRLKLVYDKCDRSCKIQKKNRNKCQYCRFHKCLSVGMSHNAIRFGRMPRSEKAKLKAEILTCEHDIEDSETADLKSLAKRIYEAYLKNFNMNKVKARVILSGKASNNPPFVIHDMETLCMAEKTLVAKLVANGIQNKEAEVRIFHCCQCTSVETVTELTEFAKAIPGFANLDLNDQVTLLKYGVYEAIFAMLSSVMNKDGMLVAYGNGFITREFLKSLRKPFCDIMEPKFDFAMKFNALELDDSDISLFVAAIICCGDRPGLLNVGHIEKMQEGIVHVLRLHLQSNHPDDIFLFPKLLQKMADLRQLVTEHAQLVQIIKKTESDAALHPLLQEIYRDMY
Protocol: (§1) This activity is determined with the aid of a reporter enzyme (luciferase) for activation due to the compound via one of the PPAR receptors.
(§2) The biological tests carried out correspond to those described above. […] Thus, the activating power via PPAR-α, PPAR-γ or PPAR-δ of molecules may be evaluated with a transactivation test in which HeLa cells were cotransfected with an expression vector encoding these receptors and a reporter plasmid containing a PPRE response element cloned upstream of part of an SV40 virus promoter and of the luciferase gene. The cotransfected cells were treated for 24 hours with the molecules to be tested and the luciferase activity was determined by luminescence.

[2] = biological target: T2, PPAR-γ (Homo sapiens, UniProt P37231); assay: PPAR-type receptor transactivation test (luciferase reporter), PPAR-γ; conditions: for % activation γ / AC50: cotransfected HeLa cells treated 24 hours; for % activation γ: luciferase activity, relative to reference molecule Reference 2; for Emax: HeLa, 24 h, read-out: % activation γ; for AC50: luciferase, concentration giving 50% of the activity of reference molecule
T2 construct: expressed in transfected cells; host or cells: HeLa cells
T2 sequence (P37231 1-505): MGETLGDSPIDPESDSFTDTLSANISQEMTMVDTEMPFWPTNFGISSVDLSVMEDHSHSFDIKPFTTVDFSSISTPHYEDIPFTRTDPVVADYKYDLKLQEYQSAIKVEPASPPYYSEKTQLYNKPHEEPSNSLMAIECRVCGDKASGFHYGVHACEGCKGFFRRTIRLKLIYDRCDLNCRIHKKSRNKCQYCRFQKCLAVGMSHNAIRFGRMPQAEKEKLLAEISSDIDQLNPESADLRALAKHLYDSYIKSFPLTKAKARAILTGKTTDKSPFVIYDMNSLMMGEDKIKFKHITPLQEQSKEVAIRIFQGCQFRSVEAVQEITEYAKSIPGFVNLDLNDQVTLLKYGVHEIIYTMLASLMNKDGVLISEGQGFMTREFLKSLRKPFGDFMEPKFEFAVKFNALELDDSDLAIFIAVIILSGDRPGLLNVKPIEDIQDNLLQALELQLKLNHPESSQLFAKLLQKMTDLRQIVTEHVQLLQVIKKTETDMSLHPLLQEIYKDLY
Protocol: as §1, §2

[3] = biological target: T3, PPAR-β (Homo sapiens, UniProt Q03181); assay: PPAR-type receptor transactivation test (luciferase reporter), PPAR-β; conditions: for % activation β / AC50: cotransfected HeLa cells treated 24 hours; for % activation β: luciferase activity, relative to reference molecule Reference 2; for Emax: HeLa, 24 h, read-out: % activation β; for AC50: luciferase, concentration giving 50% of the activity of reference molecule
T3 construct: expressed in transfected cells; host or cells: HeLa cells
T3 sequence (Q03181 1-441): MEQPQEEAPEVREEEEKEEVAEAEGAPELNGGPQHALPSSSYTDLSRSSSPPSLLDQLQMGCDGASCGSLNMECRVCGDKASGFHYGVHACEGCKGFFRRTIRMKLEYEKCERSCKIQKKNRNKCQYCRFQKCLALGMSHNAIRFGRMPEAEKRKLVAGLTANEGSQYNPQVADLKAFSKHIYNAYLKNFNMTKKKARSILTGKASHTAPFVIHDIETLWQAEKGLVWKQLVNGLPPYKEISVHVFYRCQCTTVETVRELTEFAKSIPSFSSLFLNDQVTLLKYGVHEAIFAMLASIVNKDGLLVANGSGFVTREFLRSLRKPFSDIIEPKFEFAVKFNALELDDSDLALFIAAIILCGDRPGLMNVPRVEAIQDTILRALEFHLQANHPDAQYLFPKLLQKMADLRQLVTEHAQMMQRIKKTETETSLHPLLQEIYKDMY
Protocol: as §1, §2

% activation α [1]	% activation γ [2]	% activation β [3]	Emax [1]	Emax [2]	Emax [3]	AC50 [1]	AC50 [2]	AC50 [3]	Molecule
6%	3%	19%	–	–	–	–	–	–	6-(2,4-diisopropylbenzoyl)napthalene-2-carboxylic acid [compound 3]
–	–	–	4%	7%	16%	–	–	–	COc1ccc(C(O)c2ccc(C(=O)O)cc2)cc1C12CC3CC(CC(C3)C1)C2 (stereo not shown) [Comparative Example 6, 4-[(3-adamantan-1-yl-4-methoxyphenyl)hydroxymethyl]benzoic acid]
–	–	–	48%	190%	280%	900 nM	1500 nM	700 nM	CC1(C)CCc2cc(C(=O)c3ccc4cc(C(=O)O)ccc4c3)ccc2O1 [Compound 2, 6-(2,2-dimethylchroman-6-carbonyl)naphthalene-2-carboxylic acid]
–	–	–	16%	36%	92%	–	–	–	CC1(C)CCOc2ccc(C(=O)c3ccc4cc(C(=O)O)ccc4c3)cc21 [Compound 5, 6-(4,4-dimethylchroman-6-carbonyl)naphthalene-2-carboxylic acid]
–	–	–	63%	148%	277%	1000 nM	360 nM	300 nM	CC(C)(C)c1ccc(C(=O)c2ccc3cc(C(=O)O)ccc3c2)cc1 [Compound 3, 6-(4-tert-butylbenzoyl)naphthalene-2-carboxylic acid]
6%	2%	23%	–	–	–	–	–	–	COc1ccc(C(=O)c2ccc3cc(C(=O)O)ccc3c2)cc1-c1ccccc1 [Comparative Example 4, 6-(6-methoxybiphenyl-3-carbonyl)napthalene-2-carboxylic acid]
–	–	–	0%	0%	23%	–	–	–	COc1ccc(C(=O)c2ccc(C(=O)O)cc2)cc1C12CC3CC(CC(C3)C1)C2 [compound 7, 4-(3-adamantan-1-yl-4-methoxybenzoyl)benzoic acid]
100%	–	–	–	–	–	–	–	–	Cc1cccc(Nc2cc(Cl)nc(SCC(=O)O)n2)c1C [Reference 1, [4-chloro-6-(2,3-dimethylphenylamino)pyrimidin-2-ylsulphanyl]acetic acid]
1%	13%	1%	–	–	–	–	–	–	C-(6-carboxynaphthalen-2-yl)-C-(5,5,8,8-tetramethyl-5,6,7,8-tetrahydronaphthalen-2-yl)methylammonium [compound 2]
–	–	–	6%	3%	8%	–	–	–	COc1cc(C(=O)c2ccc3cc(C(=O)O)ccc3c2)ccc1C12CC3CC(CC(C3)C1)C2 [compound 5, 6-(4-adamantan-1-yl-3-methoxybenzoyl)naphthalene-2-carboxylic acid]
–	–	–	40%	174%	291%	2000 nM	800 nM	500 nM	O=C(O)c1ccc2cc(C(=O)c3ccc4c(c3)CCCC4)ccc2c1 [Compound 4, 6-(5,6,7,8-tetrahydronaphthalene-2-carbonyl)naphthalene-2-carboxylic acid]

Molecule	% activation α [1]	% activation γ [2]	% activation β [3]	Emax [1]	Emax [2]	Emax [3]	AC50 [1]	AC50 [2]	AC50 [3]
CCCCOC(c1ccc2c(c1)C(C)(C)CCC2(C)C)c1ccc2cc(C(=O)O)ccc2c1 (stereo not shown) [Comparative Example 1, 6-[butoxy(5,5,8,8-tetramethyl-5,6,7,8-tetrahydronaphthalen-2-yl)methyl]naphthalene-2-carboxylic acid]	–	–	–	0%	7%	28%	–	–	–
